Measurements as given in patent US20240109900A1, “AZABICYCLIC SHP2 INHIBITORS” (IRBM S.P.A., priority 2021, published 2024).
pIC50: −log10 of the molar value.

Tests used:
[1] = target: SHP-2 enzyme (Met1-Leu525) (Homo sapiens (Human), UniProt Q06124); assay: SHP2 inhibition enzymatic assay; format: biochemical; details: 0.5 nM SHP-2 activated by 500 nM IRS1 peptide, 75 μM DiFMUP substrate; read-out: SHP2wt-IC50
How it was run: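 SHP-2 (Met1-Leu525), 0.5 nM, activated with 500 nM IRS1 bis-phosphopeptide, preincubated 30 min with compounds in HEPES pH 7.2 buffer with 5 mM DTT. 75 μM DiFMUP added for 30 min at room temperature, stopped with bpV; fluorescence read. IC50 from four-parameter logistic fit of % inhibition.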

[2] = tested on: ERK phosphorylation in KYSE-520 cells; assay: Phospho-ERK cellular assay; format: cell-based; details: Homo sapiens, KYSE-520, 2 h, KYSE-520 cells, 2 h at 37° C., phospho-ERK1/2 (Thr202/Tyr204) TR-FRET; read-out: PERK IC50
How it was run: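 TR-FRET read-out of ERK1/2 Thr202/Tyr204 phosphorylation was taken after overnight antibody incubation at room temperature. Before that, KYSE-520 cells were treated 2 h at 37 °C with compound dilutions and lysed 30 min. Percent inhibition relative to vehicle and cell-free wells was fitted four-parametrically to give IC50.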

Sequence of SHP-2 enzyme (Met1-Leu525) (Q06124 1-525): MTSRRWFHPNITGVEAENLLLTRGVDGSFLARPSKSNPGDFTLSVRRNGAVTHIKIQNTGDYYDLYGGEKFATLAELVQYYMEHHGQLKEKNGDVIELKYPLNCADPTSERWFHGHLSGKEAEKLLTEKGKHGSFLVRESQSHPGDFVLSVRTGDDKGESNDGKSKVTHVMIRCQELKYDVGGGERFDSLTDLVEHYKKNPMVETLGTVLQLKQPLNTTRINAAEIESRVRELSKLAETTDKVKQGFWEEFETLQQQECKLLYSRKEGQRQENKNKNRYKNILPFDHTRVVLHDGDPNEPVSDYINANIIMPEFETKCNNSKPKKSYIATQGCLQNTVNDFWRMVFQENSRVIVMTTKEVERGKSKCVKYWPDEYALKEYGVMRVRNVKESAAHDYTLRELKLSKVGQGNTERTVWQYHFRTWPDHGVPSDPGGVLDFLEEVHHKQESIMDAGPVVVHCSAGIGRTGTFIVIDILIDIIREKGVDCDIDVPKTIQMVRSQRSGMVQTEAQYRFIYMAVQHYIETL

SMILES	pIC50 [1]	pIC50 [2]
NCC1(c2ccccc2)C2CCN(c3cnc(Sc4cccnc4C(F)(F)F)c(N)n3)CC21 (centres unmarked) [Example 71, 6-(7-(aminomethyl)-7-phenyl-3-azabicyclo[4.1.0]heptan-3-yl)-3-((2-(trifluoromethyl)pyridin-3-yl)thio)pyrazin-2-amine]	> 6.30	< 5.30
Cn1ccc2c(-c3n[nH]c4nc(N5CC[C@@H]6[C@H](C5)[C@@]6(CN)c5ccccc5F)cnc34)ccc(F)c2c1=O [Example 315, 5-(6-((1S,6R,7R)-7-(aminomethyl)-7-(2-fluorophenyl)-3-azabicyclo[4.1.0]heptan-3-yl)-1H-pyrazolo[3,4-b]pyrazin-3-yl)-8-fluoro-2-methylisoquinolin-1(2H)-one]	> 6.30	> 6.00
Cc1cc([C@@]2(CN)[C@@H]3CCN(c4cnc5c(-c6ccnc7cc(F)ccc67)n[nH]c5n4)C[C@@H]32)no1 [Example 45, ((1S,6R,7S)-3-(3-(7-fluoroquinolin-4-yl)-1H-pyrazolo[3,4-b]pyrazin-6-yl)-7-(5-methylisoxazol-3-yl)-3-azabicyclo[4.1.0]heptan-7-yl)methanamine]	> 6.30	> 6.00
Cc1csc([C@@]2(CN)[C@@H]3CN(c4cc(=O)n(-c5cccc(Cl)c5Cl)c(C)n4)C[C@@H]32)n1 [Example 433, 6-((1R,5S,6r)-6-(aminomethyl)-6-(4-methylthiazol-2-yl)-3-azabicyclo[3.1.0]hexan-3-yl)-3-(2,3-dichlorophenyl)-2-methylpyrimidin-4(3H)-one]	> 6.30	> 6.00
NC[C@]1(c2ccccc2F)[C@@H]2CCN(c3cnc4c(-c5ccnc(NC6CC6)c5Cl)n[nH]c4n3)C[C@@H]21 [Example 197, 4-(6-((1S,6R,7R)-7-(aminomethyl)-7-(2-fluorophenyl)-3-azabicyclo[4.1.0]heptan-3-yl)-1H-pyrazolo[3,4-b]pyrazin-3-yl)-3-chloro-N-cyclopropylpyridin-2-amine]	> 6.30	> 6.00
Cc1c(-c2n[nH]c3nc(N4CC[C@@H]5[C@H](C4)[C@@]5(CN)c4ccccc4F)cnc23)ccc2[nH]c(=O)[nH]c12 [Example 259, 5-(6-((1S,6R,7R)-7-(aminomethyl)-7-(2-fluorophenyl)-3-azabicyclo[4.1.0]heptan-3-yl)-1H-pyrazolo[3,4-b]pyrazin-3-yl)-4-methyl-1,3-dihydro-2H-benzo[d]imidazol-2-one]	> 6.30	> 6.00

Next, values leading:

pIC50 [1]	pIC50 [2]	SMILES
> 6.30	> 6.00	Cc1nccc(-c2n[nH]c3nc(N4CC[C@@H]5[C@H](C4)[C@@]5(CN)c4ccccc4F)cnc23)c1F [Example 195, ((1S,6R,7R)-3-(3-(3-fluoro-2-methylpyridin-4-yl)-1H-pyrazolo[3,4-b]pyrazin-6-yl)-7-(2-fluorophenyl)-3-azabicyclo[4.1.0]heptan-7-yl)methanamine]
> 6.30	> 6.00	NC[C@]1(c2ccccc2F)[C@@H]2CCN(c3cnc4c(-c5cccc6c5CCC(=O)N6)n[nH]c4n3)C[C@@H]21 [Example 293, 5-(6-((1S,6R,7R)-7-(aminomethyl)-7-(2-fluorophenyl)-3-azabicyclo[4.1.0]heptan-3-yl)-1H-pyrazolo[3,4-b]pyrazin-3-yl)-3,4-dihydroquinolin-2(1H)-one]
> 6.30	> 6.00	Cc1csc(C2(CN)C3CCN(c4cnc5c(-c6cccc7ncccc67)n[nH]c5n4)CC32)n1 (centres unmarked) [Example 88, (7-(4-methylthiazol-2-yl)-3-(3-(quinolin-5-yl)-1H-pyrazolo[3,4-b]pyrazin-6-yl)-3-azabicyclo[4.1.0]heptan-7-yl)methanamine]
> 6.30	> 6.00	NC[C@]1(c2ccccc2F)[C@@H]2CCN(c3cnc4c(-c5ccc(C(=O)NC6CC6)c6ncccc56)n[nH]c4n3)C[C@@H]21 [Example 279, 5-(6-((1S,6R,7R)-7-(aminomethyl)-7-(2-fluorophenyl)-3-azabicyclo[4.1.0]heptan-3-yl)-1H-pyrazolo[3,4-b]pyrazin-3-yl)-N-cyclopropylquinoline-8-carboxamide]
